Among the data in patent publication US9795607B2, “Substituted pyrrolopyrimidine compounds, compositions thereof, and methods of treatment therewith” (Signal Pharmaceutical, LLC, priority 2013, dated 2017) are IC50 values, retold here.

The test has as its system Triple negative breast cancer cell line CAL51. Description: Cell Titer Glo proliferation assay, CAL51. To be noted: Homo sapiens, CAL-51; CAL51 cell proliferation, Cell Titer Glo; read-out: Act. Level. It counts as cell-based. As to the method:
Cell Titer Glo Proliferation Assay.
Triple negative breast cancer cell line CAL51 was purchased from DSMZ. […] Allcell lines were maintained in growth media consisting of 90% high glucose Dulbecco's Modified Eagle Medium or RPMI1640 (Invitrogen), 10% fetal bovine serum (Hyclone), and 2 mM L-glutamine (Invitrogen). […] After overnight culture, compound stock (30 mM) was diluted serially in DMSO, further diluted in growth media, and was added to each well as a 10× concentrated solution in a volume of 11 μL, mixed, and allowed to incubate with cells. The compound vehicle (DMSO) was maintained at a final concentration of 0.2% in all wells. After 72 h, 100 μL of Cell Titer Glo solution (Promega) was added to each well of the 96-well plate. The plate was placed on a shaker for 2 minutes. After 10 minutes incubation, the luminescence signal was detected with Envision microplate reader (Perkin Elmer).
As for `COc1cc(C(=O)N2C[C@@H]2CO)ccc1Nc1nc(OC2CCCC2)c2c(-c3ccc4nc(C)oc4c3)c[nH]c2n1` [Example 346, (R)-(4-(4-(cyclopentyloxy)-5-(2-methylbenzo[d]oxazol-6-yl)-7H-pyrrolo[2,3-d]pyrimidin-2-ylamino)-3-methoxyphenyl)(2-(hydroxymethyl)aziridin-1-yl)methanone], the IC50 was 100 to 400 nM.

On to `COc1cc(C(=O)NC2COC2)ccc1Nc1nc(OC)c2c(-c3ccncc3)c[nH]c2n1` [Example 347, 3-methoxy-4-(4-methoxy-5-(pyridin-4-yl)-7H-pyrrolo[2,3-d]pyrimidin-2-ylamino)-N-(oxetan-3-yl)benzamide], for which the IC50 is 100 to 400 nM.

Turning to `CNC(=O)c1ccc(-c2c[nH]c3nc(Nc4ccc(C(=O)NC5CN(C)C5)cc4OC)nc(OC4CCC4)c23)cc1` [Example 348, 4-(4-cyclobutoxy-5-(4-(methylcarbamoyl)phenyl)-7H-pyrrolo[2,3-d]pyrimidin-2-ylamino)-3-methoxy-N-(1-methylazetidin-3-yl)benzamide], the IC50 lay within 100 to 400 nM.

With `CNC(=O)c1ccc(-c2c[nH]c3nc(Nc4ccc(C(=O)NC5CN(C)C5)cc4OC)nc(OC4CCC(C)(O)CC4)c23)cc1` (centres unmarked) [Example 349, 4-(4-((1s,4s)-4-hydroxy-4-methylcyclohexyloxy)-5-(4-(methylcarbamoyl)phenyl)-7H-pyrrolo[2,3-d]pyrimidin-2-ylamino)-3-methoxy-N-(1-methylazetidin-3-yl)benzamide], the IC50 fell in the range of 100 to 400 nM.

In the case of `COc1cc(C(=O)N2C[C@H]2CO)ccc1Nc1nc(OC2CCCC2)c2c(-c3ccc4nc(C)oc4c3)c[nH]c2n1` [Example 350, (S)-(4-(4-(cyclopentyloxy)-5-(2-methylbenzo[d]oxazol-6-yl)-7H-pyrrolo[2,3-d]pyrimidin-2-ylamino)-3-methoxyphenyl)(2-(hydroxymethyl)aziridin-1-yl)methanone], the IC50 lay in the range of 100 to 400 nM.

`Cc1nc2ccc(-c3c[nH]c4nc(Nc5cnn(C(C)C)c5Cl)nc(OC5CCCC5)c34)cc2o1` [Example 351, N-(5-chloro-1-isopropyl-1H-pyrazol-4-yl)-4-(cyclopentyloxy)-5-(2-methylbenzo[d]oxazol-6-yl)-7H-pyrrolo[2,3-d]pyrimidin-2-amine]: the IC50 fell in the range of 100 to 400 nM.

`CNC(=O)c1ccc(-c2c[nH]c3nc(Nc4ccc(C(=O)NC5COC5)cc4OC)nc(OC4CCC4)c23)cn1` [Example 352, 5-(4-cyclobutoxy-2-(2-methoxy-4-(oxetan-3-ylcarbamoyl)phenylamino)-7H-pyrrolo[2,3-d]pyrimidin-5-yl)-N-methylpicolinamide]: the IC50 was in the range of 1000 to 10000 nM.

Consider `CNC(=O)c1ccc(-c2c[nH]c3nc(Nc4ccc(C(=O)NC5COC5)cc4OC)nc(OC4CCC4)c23)cc1F` [Example 353, 4-(4-cyclobutoxy-2-(2-methoxy-4-(oxetan-3-ylcartbamoyl)phenylamino)-7H-pyrrolo[2,3-d]pyrimidin-5-yl)-2-fluoro-N-methylbenzamide], for which the IC50 was 1000 to 10000 nM.

For `COc1cc(C(=O)NC2CN(C)C2)ccc1Nc1nc(OC(C)(C)C)c2c(-c3ccc4nc(C)oc4c3)c[nH]c2n1` [Example 354, 4-(4-tert-butoxy-5-(2-methylbenzo[d]oxazol-6-yl)-7H-pyrrolo[2,3-d]pyrimidin-2-ylamino)-3-methoxy-N-(1-methylazetidin-3-yl)benzamide], the IC50 was under 100 nM.

In the case of `CNC(=O)c1ccc(-c2c[nH]c3nc(Nc4ccc(C(=O)NC5CN(C)C5)cc4OC)nc(OC(C)(C)C)c23)cc1` [Example 355, 4-(4-tert-butoxy-5-(4-(methylcarbamoyl)phenyl)-7H-pyrrolo[2,3-d]pyrimidin-2-ylamino)-3-methoxy-N-(1-methylazetidin-3-yl)benzamide], the IC50 was under 100 nM.

Take `COc1cc(C(=O)NC2CN(C)C2)ccc1Nc1nc(OC(C)C)c2c(-c3ccc4nc(C)oc4c3)c[nH]c2n1` [Example 356, 4-(4-isopropoxy-5-(2-methylbenzo[d]oxazol-6-yl)-7H-pyrrolo[2,3-d]pyrimidin-2-ylamino)-3-methoxy-N-(1-methylazetidin-3-yl)benzamide]: the IC50 is under 100 nM.

Consider `CNC(=O)c1ccc(-c2c[nH]c3nc(Nc4ccc(C(=O)NC5CN(C)C5)cc4OC)nc(OC(C)C)c23)cc1` [Example 357, 4-(4-isopropoxy-5-(4-(methylcarbamoyl)phenyl)-7H-pyrrolo[2,3-d]pyrimidin-2-ylamino)-3-methoxy-N-(1-methylazetidin-3-yl)benzamide], for which the IC50 was under 100 nM.

As to `COc1cc(C(=O)NC2CN(C)C2)ccc1Nc1nc(OC2CCC(C)(O)CC2)c2c(-c3ccc4nc(C)oc4c3)c[nH]c2n1` (centres unmarked) [Example 358, 4-(4-((1s,4s)-4-hydroxy-4-methylcyclohexyloxy)-5-(2-methylbenzo[d]oxazol-6-yl)-7H-pyrrolo[2,3-d]pyrimidin-2-ylamino)-3-methoxy-N-(1-methylazetidin-3-yl)benzamide], the IC50 lay in the range of 100 to 400 nM.

Regarding `CNC(=O)c1ccc(-c2c[nH]c3nc(Nc4ccc(C(=O)NC5COC5)cc4OC)nc(OC4COC4)c23)cc1` [Example 359, 3-methoxy-4-(5-(4-(methylcarbamoyl)phenyl)-4-(oxetan-3-yloxy)-7H-pyrrolo[2,3-d]pyrimidin-2-ylamino)-N-(oxetan-3-yl)benzamide], the IC50 lay in the range of 100 to 400 nM.

On to `COc1cc(C(=O)NC2COC2)ccc1Nc1nc(OC2CCC2)c2c(-c3ccc(-c4ncc[nH]4)cc3)c[nH]c2n1` [Example 360, 4-(5-(4-(1H-imidazol-2-yl)phenyl)-4-cyclobutoxy-7H-pyrrolo[2,3-d]pyrimidin-2-ylamino)-3-methoxy-N-(oxetan-3-yl)benzamide], for which the IC50 is under 100 nM.

With `COc1cc(C(=O)NC2CN(C)C2)ccc1Nc1nc(OC2CCCC2)c2c(-c3ccc(-c4ncc[nH]4)cc3)c[nH]c2n1` [Example 361, 4-(5-(4-(1H-imidazol-2-yl)phenyl)-4-(cyclopentyloxy)-7H-pyrrolo[2,3-d]pyrimidin-2-ylamino)-3-methoxy-N-(1-methylazetidin-3-yl)benzamide], the IC50 was 100 to 400 nM.

For `COc1cc(C(=O)NC2COC2)ccc1Nc1nc(OC(C)C)c2c(-c3ccc4nc(C)oc4c3)c[nH]c2n1` [Example 362, 4-(4-isopropoxy-5-(2-methylbenzo[d]oxazol-6-yl)-7H-pyrrolo[2,3-d]pyrimidin-2-ylamino)-3-methoxy-N-(oxetan-3-yl)benzamide], the IC50 lay in the range of 100 to 400 nM.

Turning to `COc1cc(C(=O)NC2CN(C)C2)ccc1Nc1nc(OC2CC2)c2c(-c3ccc4nc(C)oc4c3)c[nH]c2n1` [Example 363, 4-(4-cyclopropoxy-5-(2-methylbenzo[d]oxazol-6-yl)-7H-pyrrolo[2,3-d]pyrimidin-2-ylamino)-3-methoxy-N-(1-methylazetidin-3-yl)benzamide], the IC50 is under 100 nM.

In the case of `CNC(=O)c1ccc(-c2c[nH]c3nc(Nc4ccc(C(=O)NC5CN(C)C5)cc4OC)nc(OC4CC4)c23)cc1` [Example 364, 4-(4-cyclopropoxy-5-(4-(methylcarbamoyl)phenyl)-7H-pyrrolo[2,3-d]pyrimidin-2-ylamino)-3-methoxy-N-(1-methylazetidin-3-yl)benzamide], the IC50 is 100 to 400 nM.

With `COCCOc1nc(Nc2ccc(C(=O)NC3COC3)cc2OC)nc2[nH]cc(-c3ccc4nc(C)oc4c3)c12` [Example 365, 3-methoxy-4-(4-(2-methoxyethoxy)-5-(2-methylbenzo[d]oxazol-6-yl)-7H-pyrrolo[2,3-d]pyrimidin-2-ylamino)-N-(oxetan-3-yl)benzamide], the IC50 is under 100 nM.

As to `CNC(=O)c1ccc(-c2c[nH]c3nc(Nc4ccc(C(=O)NC5CN(C)C5)cc4OC)nc(OC4CCOCC4)c23)cc1` [Example 366, 3-methoxy-N-(1-methylazetidin-3-yl)-4-(5-(4-(methylcarbamoyl)phenyl)-4-(tetrahydro-2H-pyran-4-yloxy)-7H-pyrrolo[2,3-d]pyrimidin-2-ylamino)benzamide], the IC50 was in the range of 100 to 400 nM.

Turning to `COc1cc(C(=O)NC2CN(C)C2)ccc1Nc1nc(OC2CCOCC2)c2c(-c3ccc4nc(C)oc4c3)c[nH]c2n1` [Example 367, 3-methoxy-N-(1-methylazetidin-3-yl)4-(5-(2-methylbenzo[d]oxazol-6-yl)-4-(tetrahydro-2H-pyran-4-yloxy)-7H-pyrrolo[2,3-d]pyrimidin-2-ylamino)benzamide], the IC50 lay in the range of 100 to 400 nM.

As to `COc1cc(C(=O)NC2COC2)ccc1Nc1nc(OC2CCOCC2)c2c(-c3ccc4nc(C)oc4c3)c[nH]c2n1` [Example 368, 3-methoxy-4-(5-(2-methylbenzo[d]oxazol-6-yl)-4-(tetrahydro-2H-pyran-4-yloxy)-7H-pyrrolo[2,3-d]pyrimidin-2-ylamino)-N-(oxetan-3-yl)benzamide], the IC50 is under 100 nM.

Take `COc1cc(C(=O)NC2COC2)ccc1Nc1nc(OC2CC2)c2c(-c3ccc4nc(C)oc4c3)c[nH]c2n1` [Example 369, 4-(4-cyclopropoxy-5-(2-methylbenzo[d]oxazol-6-yl)-7H-pyrrolo[2,3-d]pyrimidin-2-ylamino)-3-methoxy-N-(oxetan-3-yl)benzamide]: the IC50 lay in the range of 100 to 400 nM.

In the case of `COc1cc(C(=O)NC2COC2)ccc1Nc1nc(OC(C)(C)C)c2c(-c3ccc4nc(C)oc4c3)c[nH]c2n1` [Example 370, 4-(4-tert-butoxy-5-(2-methylbenzo[d]oxazol-6-yl)-7H-pyrrolo[2,3-d]pyrimidin-2-ylamino)-3-methoxy-N-(oxetan-3-yl)benzamide], the IC50 was under 100 nM.

For the compound `Cc1nc2ccc(-c3c[nH]c4nc(Nc5cnn(CC(C)(C)O)c5Cl)nc(OC5CCCC5)c34)cc2o1` [Example 371, 1-(5-chloro-4-(4-(cyclopentyloxy)-5-(2-methylbenzo[d]oxazol-6-yl)-7H-pyrrolo[2,3-d]pyrimidin-2-ylamino)-1H-pyrazol-1-yl)-2-methylpropan-2-ol], the IC50 is under 100 nM.
